Measurements taken from patent US11274131B2, “IgM-mediated receptor clustering and cell modulation” (MAYO FOUNDATION FOR MEDICAL EDUCATION AND RESEARCH, priority 2007, dated 2022).

Tested on: matured human monocyte-derived DC
Assay: Antigen uptake assay, matured human DC
Type: cell-based
Settings: inhibitor pretreatment before B7-DC XAb
Procedure: FIGS. 2A to 2G are a series of pictures showing that a kinase activated pathway regulates antibody-induced antigen uptake by matured DC. Matured human monocyte-derived DC were treated with the MTAb B7-DC XAb for varying time periods and evaluated for the phosphorylation status of select signaling pathway intermediates by immunoprecipitation with DAP12 (MC457), Syk (4D10), and PLCγ1 (MC490) reactive antibodies followed by western blot analysis using the phosphotyrosine reactive antibody 4G10 as a probe (FIGS. 2A-2C). Samples of the cells blocked with indicated concentration of piceatannol (FIG. 2D) or with […] of piceatannol (FIG. 2E) were analyzed for phosphorylation of Syk (FIG. 2D) and PLCγ1 (FIG. 2E). To investigate the functional importance of these signaling intermediates in the regulation of antigen uptake by matured DC activated with B7-DC XAb, varying concentrations of pharmacologic inhibitors were used to block the activity of p72Syk (piceatannol) and PLCγ1 (U73122) (FIGS. 2F and 2G, respectively). Antigen uptake was assessed by pulsing cultures with FITC-conjugated ovalbumin and measuring intracellular fluorescence 16 hours later in CD11c positive cells by flow cytometry.
Human DC were generated from peripheral blood CD14^+ monocytes by incubation in GM-CSF and IL-4 for five days. […] All cultures were pulsed with OVA-FITC at the time of treatment with IgM antibodies, and […] OVA-FITC was assessed 24 hours later by flow cytometry.
FIGS. 4A and 4B are a series of plots showing the effects of kinase inhibitors on OVA-FITC uptake by matured human DC, as determined by flow cytometry. […] All cells were pulsed with OVA-FITC at the time of treatment with IgM antibody, and CD11c+ cells were analyzed for OVA-FITC uptake 24 hours later by flow cytometry. […]
Antigen uptake experiments were carried out as described previously (Radhakrishnan et al. (2005) Proc. Natl. Acad. Sci. U.S.A. 102:11438-11443). […] The matured cells were incubated with ovalbumin labeled with FITC or APC and control antibody or B7-DC XAb for two hours, washed and analyzed by FACSCALIBUR™ (Becton Dickinson). […]

| Compound | inhibition of B7-DC XAb-induced antigen uptake by matured DC |
| --- | --- |
| CC(C)(C)n1nc(-c2ccc(Cl)cc2)c2c(N)ncnc21 [PP2] | inhibition of antigen uptake |
| COc1ccc2c(c1)CC[C@@H]1[C@@H]2CC[C@]2(C)[C@@H](NCCCCCCN3C(=O)C=CC3=O)CC[C@@H]12 [U73122] | inhibited uptake of tagged proteins by matured DC in a dose responsive manner |
